Data published in the NIST ThermoML archive (doi:10.1021/je800848u).
± gives the expanded uncertainty stated by the source.

Tests used:
[1] = Molar enthalpy of transition or fusion; conditions: Crystal; DSC
[2] = Crystal; visual observation

Row | Structure (SMILES) | Molar enthalpy of transition or fusion [1] [kcal/mol] | Normal melting temperature [2] [°C]
1 | NC(=O)c1ccccc1 [benzamide] | 5.53 ± 0.163 | 127.00 ± 0.4
2 | O=C(O)c1ccccc1Cl [2-chlorobenzoic acid] | 6.58 ± 0.189 | 141.00 ± 0.4
